This is an account of results in PubChem BioAssay (NCI).

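1) Cells in 96-well plates. 2) Compound, 48 h, 5 concentrations. 3) Linear interpolation between surrounding doses. 4) Unreached endpoint = highest concentration. The concentration for 50% growth inhibition is given as GI50. At the TGI there is no net growth.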

What all share (experiment): NCI anticancer screen, dose series, 48 h
Test [1] has as its system A549 NSCLC.
The test system of test [2] is DU-145 prostate.
The test system of test [3] is HS 578T breast.
The subject of test [4] is M14 melanoma.
Test [5] concerns MCF7 breast.
Test [6] relates to MOLT-4 leukemia.
In test [7] the test system is NCI-H226 lung.
Test [8] has as its system U251 CNS.

On to `COc1ccc(-c2cn3ccnc3c(-c3ccc4ncn(C5CCCCC5)c4c3)n2)cc1`, for which the GI50 in test [1] is 1.83 µM; in test [2], 1.07 µM; in test [3], 1.16 µM; in test [4], 0.612 µM; in test [5], 0.64 µM; in test [6] it was 2.66 µM. Also, the GI50 in test [7] was 2.97 µM; in test [8], 2.22 µM. Moreover, the TGI in test [1] was > 100 µM; in test [2], > 100 µM; in test [3], 49.3 µM; in test [4] it was > 100 µM; in test [5] it was > 100 µM; in test [6] it was > 100 µM. Besides, the TGI in test [7] and in test [8] was > 100 µM throughout.

On to `CCOC(=O)/C(=C\c1ccc(CO)o1)P(=O)(OCC)OCC`, for which the TGI in test [1] is > 100 µM; in test [2], > 100 µM; in test [3], > 100 µM; in test [4] it was 98 µM; in test [5], > 100 µM; in test [6] it was > 100 µM. Also, the TGI in test [7] and in test [8] was > 100 µM each time.

As for `C/C(=N/O)c1cccc(Nc2nc3ccccc3c3[nH]c4ccccc4c23)c1`, the TGI in test [1] turned out to be 8.8 µM; in test [2] it was 5.59 µM; in test [3] it was 21.4 µM; in test [4], 6.3 µM; in test [5], 5.63 µM; in test [6], 3.55 µM. Moreover, the TGI came out at 21 µM in test [7] and 11.5 µM in test [8].

In the case of `c1ccc(N=NNNc2ccc(-c3nc4ccccc4[nH]3)cc2)cc1`, the TGI in test [1] was > 100 µM; in test [2] it was > 100 µM; in test [3], 89.1 µM; in test [4], > 100 µM; in test [5] it was 69.9 µM; in test [6] it was 36.8 µM. Moreover, the TGI in test [7] and in test [8] was > 100 µM each time.

Regarding `COc1nc2c(c(=O)n1C)N[C@@H]1[C@@H](O)[C@H](O)CO[C@@H]1N2`, the TGI in test [1], in test [2], in test [3], in test [4], in test [5] and in test [6] was > 100 µM throughout. For the same molecule, the TGI in test [7] and in test [8] was > 100 µM in each case.

With `CCN(CC)CCNc1ccc(N=Nc2ccc(S(N)(=O)=O)cc2)c2ccccc12`, the TGI in test [1] was found to be 40.5 µM; in test [2], 28.2 µM; in test [3], 55.9 µM; in test [4], 23.3 µM; in test [5] it was 47 µM; in test [6], 25.6 µM. The TGI in test [7] was 72.7 µM; in test [8], > 100 µM.

On to `COc1ccc(CN=CN/C(C#N)=C(\N)C#N)cc1OC`, for which the TGI in test [1], in test [2], in test [3], in test [4], in test [5] and in test [6] was > 100 µM throughout. The TGI in test [7] and in test [8] was > 100 µM each time.

Regarding `COc1cccc(C2c3cc4c(cc3OC(N3CCOCC3)C2C)OCO4)c1O` (stereo not drawn), the TGI in test [1] was 66.5 µM; in test [2], 26.6 µM; in test [3] it was 6.39 µM; in test [4] it was 25 µM; in test [5], > 44.2 µM; in test [6] it was 42.2 µM. The TGI in test [7] is 20.9 µM; in test [8] it was 12.7 µM.

With `Nc1cc(CO)cc(Nc2c3ccccc3nc3occc23)c1`, the TGI in test [1] is > 100 µM; in test [2], > 100 µM; in test [3] it was 83.8 µM; in test [4], 93.2 µM; in test [5] it was 66 µM; in test [6], 50.1 µM. In addition, the TGI in test [7] and in test [8] was > 100 µM in each case.

Turning to `CC1(C)C2CCC1C(=O)C(C=O)C2` (stereo not drawn), the TGI in test [1], in test [2], in test [3], in test [4], in test [5] and in test [6] was > 100 µM each time. The TGI in test [7] and in test [8] was > 100 µM each time.

As to `Fc1cccc2nc(-c3ccccc3)cc(OCc3ccccc3)c12`, the TGI in test [1], in test [2], in test [3], in test [4], in test [5] and in test [6] was > 100 µM throughout. The TGI in test [7] and in test [8] was > 100 µM in each case.

On to `O=C1NC(N2CCOCC2)=N/C1=C\c1ccccc1O`, for which the TGI in test [1], in test [2], in test [3], in test [4], in test [5] and in test [6] was > 100 µM in each case. Further, the TGI in test [7] and in test [8] was > 100 µM each time.

As for `Cc1ccc2[nH]c(=O)c(-c3cnc(=O)[nH]n3)c(O)c2c1`, the TGI in test [1], in test [2], in test [3], in test [4], in test [5] and in test [6] was > 100 µM in each case. In addition, the TGI in test [7] and in test [8] was > 100 µM in each case.

Regarding `OC1CN=C2c3ccccc3C(O)(c3ccc(Cl)cc3)N2C1` (stereo not drawn), the TGI in test [1] is > 100 µM; in test [2] it was > 100 µM; in test [3], > 100 µM; in test [4], 30.4 µM; in test [5], > 100 µM; in test [6], > 100 µM. For the same molecule, the TGI in test [7] and in test [8] was > 100 µM in each case.

Turning to `NS(=O)(=O)c1ccc(/C=C/c2cccc(O)c2)cc1`, the GI50 is 19.8 µM in test [1]; 61 µM in test [3]; 20 µM in test [6]; 25.8 µM in test [7]; 21.1 µM in test [8]. The TGI in test [1], in test [2], in test [3], in test [4], in test [5] and in test [6] was > 100 µM throughout. Moreover, the TGI in test [7] was 74.3 µM; in test [8], > 100 µM.
